According to patent publication US20240368655A1, “CLICK HANDLE-MODIFIED DEOXY-FLUOROARABINO NUCLEIC ACID AS A SYNTHETIC GENETIC POLYMER CAPABLE OF POST-POLYMERIZATION FUNCTIONALIZATION” (THE TRUSTEES OF BOSTON COLLEGE, priority 2023, published 2024):
“Also recorded” adds a separate entry of the source.

Biological target: T1, Thermococcus gorgonarius (Tgo) DNA polymerase (Thermococcus gorgonarius, UniProt P56689)
T1 construct: made in house
T1 sequence (P56689 1-773): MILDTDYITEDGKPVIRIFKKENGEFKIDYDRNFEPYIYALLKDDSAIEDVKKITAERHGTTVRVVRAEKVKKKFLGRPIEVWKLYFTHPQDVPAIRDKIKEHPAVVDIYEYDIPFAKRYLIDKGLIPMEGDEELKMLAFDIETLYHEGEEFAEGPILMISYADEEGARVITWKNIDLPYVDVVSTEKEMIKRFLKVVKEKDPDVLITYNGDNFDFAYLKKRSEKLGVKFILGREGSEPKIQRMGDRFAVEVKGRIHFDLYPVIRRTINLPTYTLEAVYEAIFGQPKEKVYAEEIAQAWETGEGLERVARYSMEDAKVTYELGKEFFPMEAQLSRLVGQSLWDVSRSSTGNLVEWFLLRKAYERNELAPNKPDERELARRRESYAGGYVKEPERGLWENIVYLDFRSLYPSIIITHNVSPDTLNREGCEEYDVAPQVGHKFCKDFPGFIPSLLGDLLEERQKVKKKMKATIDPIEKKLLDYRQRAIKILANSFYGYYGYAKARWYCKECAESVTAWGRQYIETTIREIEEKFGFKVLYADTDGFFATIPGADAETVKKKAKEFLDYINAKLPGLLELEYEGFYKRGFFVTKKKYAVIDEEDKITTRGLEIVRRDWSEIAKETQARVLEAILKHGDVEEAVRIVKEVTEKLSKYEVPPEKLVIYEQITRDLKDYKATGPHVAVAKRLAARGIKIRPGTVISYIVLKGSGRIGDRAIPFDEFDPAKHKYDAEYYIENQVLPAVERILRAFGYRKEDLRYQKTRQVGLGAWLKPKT
Assay: DNA-templated primer extension by Tgo DNA polymerase
Format: biochemical
Conditions: with FANA ATP, CTP, GTP, DNA primer-template complex
Procedure: It was hypothesized that Thermococcus gorgonarius (Tgo) DNA polymerase could tolerate the 5-1,7-octadiyne modification on uracil and that the enzyme could incorporate FANA nucleotides. To investigate the hypothesis, a primer extension experiment was performed, in which a DNA primer-template complex was enzymatically extended by Tgo DNA polymerase using commercially available FANA nucleotide triphosphates (A, C, and G) as well as C8-alkyne-FANA UTP 11. The DNA template was prepared to contain a 40-nucleotide (nt) random region to avoid sequence bias, as well as a 24-nt poly-AAC tail at the 3′-end, which would not be transcribed, to provide a mobility difference between extension product (76 nt) and DNA template (100 nt) in denaturing polyacrylamide gel electrophoresis (PAGE). The DNA primer was labeled by a 5′-Cy5 fluorophore to allow easy detection of the extended product. A control experiment in which all FANA nucleotide triphosphates comprising natural bases (A, C, G and T) was also conducted to determine the impact of the 5-1,7-octadiyne modification of uracil on the primer extension reactivity. Tgo DNA polymerase was added in various amounts to confirm that the generation of the extended products was mediated by the Tgo DNA polymerase in a dose-dependent fashion. […]

Substance: 5-octa-1,7-diynyluracil 2′-deoxy-2′-fluoroarabino triphosphate [compound 11]
- recognition and incorporation as substrate in primer extension: produced the full-length products in a polymerase dose-dependent fashion
- recognition and incorporation as substrate in primer extension (listed as C8-alkyne-FANA UTP): successfully served as a substrate; also recorded: quantitatively incorporated
